# pEC50: −log10 of the molar value.
# System: HBV replication in HepG2.2.15 cells
# Assay: HBV replication inhibition assay (BDNA assay)
# Assay type: cell-based
# Settings: 6 days of treatment, encapsidated HBV DNA in supernatant by branched DNA QuantiGene assay
# Text: HBV replication inhibition by the compounds of this invention could be determined in cells infected or transfected with HBV, or cells with stably integrated HBV, such as HepG2.2.15 cells (Sells et al. 1987). In this example, HepG2.2.15 cells were maintained in cell culture medium containing 10% fetal bovine serum (FBS), Geneticin, L-glutamine, penicillin and streptomycin. HepG2.2.15 cells could be seeded in 96-well plates at a density of 40,000 cells/well and be treated with serially diluted compounds at a final DMSO concentration of 0.5% either alone or in combination by adding drugs in a checker box format. Cells were incubated with compounds for three days, after which medium was removed and fresh medium containing compounds was added to cells and incubated for another three days. At day 6, supernatant was removed and treated with DNase at 37° C. for 60 minutes, followed by enzyme inactivation at 75° C. for 15 minutes. Encapsidated HBV DNA was released from the virions and covalently linked HBV polymerase by incubating in lysis buffer (Affymetrix QS0010) containing […] proteinase K at 50° C. for 40 minutes. HBV DNA was denatured by addition of 0.2 M NaOH and detected using a branched DNA (BDNA) QuantiGene assay kit according to manufacturer recommendation (Affymetrix). HBV DNA levels could also be quantified using qPCR, based on amplification of encapsidated HBV DNA extraction with QuickExtraction Solution (Epicentre Biotechnologies) and amplification of HBV DNA using HBV specific PCR probes that can hybridize to HBV DNA and a fluorescently labeled probe for quantitation. In addition, cell viability of HepG2.2.15 cells incubated with test compounds alone or in combination was determined by using CellTitre-Glo reagent according to the manufacturer protocol (Promega). The mean background signal from wells containing only culture medium was subtracted from all other samples, and percent inhibition at each compound concentration was calculated by normalizing to signals from HepG2.2.15 cells treated with 0.5% DMSO using equation E1. % inhibition=(DMSOave−Xi)/DMSOave×100% E1: […]
# where DMSOave is the mean signal calculated from the wells that were treated with DMSO control (0% inhibition control) and Xi is the signal measured from the individual wells. EC50 values, effective concentrations that achieved 50% inhibitory effect, were determined by non-linear fitting using Graphpad Prism software (San Diego, Calif.) and equation E2 Y=Ymin+(Ymax−Ymin)/(1+10(LogEC50-X)×HillSlope) E2: […]
# where Y represents percent inhibition values and X represents the logarithm of compound concentrations.
# Selected compounds of the invention were assayed in the HBV replication assay (BDNA assay), as described above and a representative group of these active compounds is shown in Table 3. […] In Table 3, “A” represents 0.01<EC50<0.10; “B” represents 0.10<EC50<0.50; and “C” represents 0.50<EC50<1.0.
# [1] = Hepatitis B virus, HepG2.2.15, 144 h
Structure (SMILES),pEC50 [1],also measured
CN(OC1CCC1)C(=O)c1n[nH]c2c1CN(C(=O)Nc1cccc(Cl)c1)CC2 [Compound 805],7.00 to 8.00,–
"O=C(Nc1cccc(Cl)c1)N1CCc2[nH]nc(C(=O)N3CC(O)CO3)c2C1 (stereo not shown) [Compound 697, N-(3-chlorophenyl)-3-(4-hydroxyisoxazolidine-2-carbonyl)-1,4,6,7-tetrahydropyrazolo [4,3-c]pyridine-5-carboxamide]",6.00 to 6.30,–
CN(OCCO)C(=O)c1n[nH]c2c1CN(C(=O)Nc1cccc(Cl)c1)CC2 [Compound 796],6.30 to 7.00,–
"O=C(Nc1cccc(Cl)c1)N1CCc2[nH]nc(C(=O)N3CC(F)CO3)c2C1 (stereo not shown) [Compound 698, N-(3-chlorophenyl)-3-(4-fluoroisoxazolidine-2-carbonyl)-1,4,6,7-tetrahydropyrazolo[4,3-c]pyridine-5-carboxamide]",7.00 to 8.00,–
"CN(O)C(=O)c1n[nH]c2c1CN(C(=O)Nc1cccc(Cl)c1)CC2 [Compound 587, N5-(3-chlorophenyl)-N3-hydroxy-N3-methyl-6,7-dihydro-1H-pyrazolo[4,3-c]pyridine-3,5(4H)-dicarboxamide]",6.00 to 6.30,–
"CCC(=O)c1n[nH]c2c1CN(C(=O)Nc1cccc(Cl)c1)CC2 [Compound 695, N-(3-chlorophenyl)-3-propanoyl-1,4,6,7-tetrahydropyrazolo [4,3-c]pyridine-5-carboxamide]",6.30 to 7.00,–
"CN(OC1CCOC1)C(=O)c1n[nH]c2c1CN(C(=O)Nc1cccc(Cl)c1)CC2 (stereo not shown) [Compound 910, N5-(3-chlorophenyl)-N3-methyl-N3-tetrahydrofuran-3-yloxy-1,4,6,7-tetrahydropyrazolo[4,3-c]pyridine-3,5-dicarboxamide]",6.30 to 7.00,–
"O=C(Nc1cccc(Cl)c1)N1CCc2[nH]nc(C(=O)N3CCCO3)c2C1 [Compound 699, N-(3-chlorophenyl)-3-(isoxazolidine-2-carbonyl)-1,4,6,7-tetrahydropyrazolo[4,3-c]pyridine-5-carboxamide]",6.30 to 7.00,–
"CON(C)C(=O)c1n[nH]c2c1CN(C(=O)Nc1cccc(Cl)c1)C(C)C2 (stereo not shown) [Compound 828 E1, N5-(3-chlorophenyl)-N3-methoxy-N3,6-dimethyl-1,4,6,7-tetrahydropyrazolo [4,3-c]pyridine-3,5-dicarboxamide]",–,pEC50 (listed as 828 E1): 7.00 to 8.00
CCON(C)C(=O)c1n[nH]c2c1CN(C(=O)Nc1cccc(Cl)c1)CC2 [Compound 599],7.00 to 8.00,–
CN(OCC1CC1)C(=O)c1n[nH]c2c1CN(C(=O)Nc1cccc(Cl)c1)CC2 [Compound 803],6.30 to 7.00,–
"CON(C)C(=O)c1n[nH]c2c1CN(C(=O)Nc1cccc(Cl)c1)CC2 [Compound 434, N5-(3-chlorophenyl)-N3-methoxy-N3-methyl-1,4,6,7-tetrahydropyrazolo [4,3-c]pyridine-3,5-dicarboxamide]",7.00 to 8.00,–
COCCON(C)C(=O)c1n[nH]c2c1CN(C(=O)Nc1cccc(Cl)c1)CC2 [Compound 800],6.30 to 7.00,–
CC(C)CON(C)C(=O)c1n[nH]c2c1CN(C(=O)Nc1cccc(Cl)c1)CC2 [Compound 798],6.30 to 7.00,–
"CON(C)C(=O)c1n[nH]c2c1CN(C(=O)Nc1cccc(Cl)c1)C(C)C2 (stereo not shown) [Compound 828 E2, N5-(3-chlorophenyl)-N3-methoxy-N3,6-dimethyl-1,4,6,7-tetrahydropyrazolo [4,3-c]pyridine-3,5-dicarboxamide]",–,pEC50 (listed as 828 E2): 6.30 to 7.00
"CC(C)ON(C)C(=O)c1n[nH]c2c1CN(C(=O)Nc1cccc(Cl)c1)CC2 [Compound 600, N5-(3-chlorophenyl)-N3-isopropoxy-N3-methyl-1,4,6,7-tetrahydropyrazolo[4,3-c]pyridine-3,5-dicarboxamide]",7.00 to 8.00,–
CN(C)N(C)C(=O)c1n[nH]c2c1CN(C(=O)Nc1cccc(Cl)c1)CC2 [Compound 937],7.00 to 8.00,–
CCCON(C)C(=O)c1n[nH]c2c1CN(C(=O)Nc1cccc(Cl)c1)CC2 [Compound 795],6.30 to 7.00,–
CCCC(=O)c1n[nH]c2c1CN(C(=O)Nc1cccc(Cl)c1)CC2 [Compound 561],7.00 to 8.00,–
"CN1CC(ON(C)C(=O)c2n[nH]c3c2CN(C(=O)Nc2cccc(Cl)c2)CC3)C1 [Compound 912, N5-(3-chlorophenyl)-N3-methyl-N3-(1-methylazetidin-3-yl)oxy-1,4,6,7-tetrahydropyrazolo[4,3-c]pyridine-3,5-dicarboxamide]",6.30 to 7.00,–
"CCN(OC)C(=O)c1n[nH]c2c1CN(C(=O)Nc1cccc(Cl)c1)CC2 [Compound 594, N5-(3-chlorophenyl)-N3-ethyl-N3-methoxy-1,4,6,7-tetrahydropyrazolo [4,3-c]pyridine-3,5-dicarboxamide]",7.00 to 8.00,–
"CON(C(=O)c1n[nH]c2c1CN(C(=O)Nc1cccc(Cl)c1)CC2)C(C)C [Compound 595, N5-(3-chlorophenyl)-N3-isopropyl-N3-methoxy-1,4,6,7-tetrahydropyrazolo [4,3-c]pyridine-3,5-dicarboxamide]",6.30 to 7.00,–
